In publication PMC11371790, “Combination of transcriptomic and proteomic approaches helps unravel the mechanisms of luteolin in inducing liver cancer cell death via targeting AKT1 and SRC” (Frontiers in Pharmacology, 2024) one finds Kd data, which are given here for 1 compound.

Each structure is given as a SMILES string.

The target of experiment [1] is AKT1 (Homo sapiens, UniProt P31749). The experiment can be described thus: bio-layer interferometry (biotinylated active AKT1, Carna […]-101, on SSA sensor, Octet K2). Format: binding.
Chain of AKT1 (P31749 whole entry): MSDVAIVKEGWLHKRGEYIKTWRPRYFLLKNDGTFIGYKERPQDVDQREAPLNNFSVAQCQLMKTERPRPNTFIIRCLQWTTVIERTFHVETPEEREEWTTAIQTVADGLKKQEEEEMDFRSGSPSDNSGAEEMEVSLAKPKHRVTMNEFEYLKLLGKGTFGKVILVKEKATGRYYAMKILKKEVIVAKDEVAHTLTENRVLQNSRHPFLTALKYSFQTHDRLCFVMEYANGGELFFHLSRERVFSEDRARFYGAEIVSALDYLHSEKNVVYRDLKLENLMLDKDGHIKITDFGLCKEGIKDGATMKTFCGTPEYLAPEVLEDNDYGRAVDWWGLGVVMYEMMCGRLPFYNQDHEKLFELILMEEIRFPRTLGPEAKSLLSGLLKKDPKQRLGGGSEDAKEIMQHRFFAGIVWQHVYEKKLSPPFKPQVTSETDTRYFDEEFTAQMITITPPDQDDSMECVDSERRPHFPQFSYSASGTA
Experiment [2] addresses SRC (Homo sapiens, UniProt P12931). The experiment is described as follows: bio-layer interferometry (biotinylated SRC on SSA sensor, Octet K2). The experiment is classed as binding.

Chain of SRC (P12931 2-536): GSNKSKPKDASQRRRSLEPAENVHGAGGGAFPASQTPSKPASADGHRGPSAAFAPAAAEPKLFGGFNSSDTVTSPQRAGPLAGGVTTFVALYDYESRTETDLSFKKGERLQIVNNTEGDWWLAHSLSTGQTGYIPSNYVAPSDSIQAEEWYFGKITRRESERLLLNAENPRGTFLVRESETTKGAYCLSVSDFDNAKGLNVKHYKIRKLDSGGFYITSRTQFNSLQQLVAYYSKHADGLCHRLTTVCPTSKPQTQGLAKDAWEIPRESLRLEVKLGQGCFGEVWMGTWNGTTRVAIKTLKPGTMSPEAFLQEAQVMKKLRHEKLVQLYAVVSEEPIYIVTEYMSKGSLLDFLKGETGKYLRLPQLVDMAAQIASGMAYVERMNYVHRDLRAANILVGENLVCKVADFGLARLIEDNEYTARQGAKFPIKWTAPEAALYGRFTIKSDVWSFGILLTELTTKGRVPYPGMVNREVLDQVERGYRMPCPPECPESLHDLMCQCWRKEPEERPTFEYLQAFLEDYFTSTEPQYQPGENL

In the case of `O=c1cc(-c2ccc(O)c(O)c2)oc2cc(O)cc(O)c12` [Luteolin], the Kd in experiment [1] was 7.86 µM; in experiment [2], 1.7 µM.
